{
  "source": "patent US20040009485A1",
  "about": "“Cellular arrays for the identification of altered gene expression” (priority 2002, published 2004)",
  "test_system": "LuxArray 1.04 E. coli strains (luxCDABE gene fusions)",
  "test": "LuxArray 1.04 limonene stress of the reporter array in liquid culture",
  "assay_type": "cell-based",
  "details": "for number of gene fusions upregulated by 2 fold or more / upregulation of gene fusion: 80% saturated limonene in LB; for number of gene fusions upregulated by 2 fold or more: LuxArray 1.04 (849 fusions)",
  "experimental": "Microplates from −80° C. containing the LuxArray 1.04 E. coli strains were thawed and used to inoculate 100 μl LB medium supplemented with 100 μg/ml ampicillin in Costar#3595 flat bottomed 96-well microplates. Following overnight growth at 37° C., the plates were visually examined and any wells with little or no turbidity were recorded. Then these cultures were diluted by transfer of 15 μl to 135 μl LB medium in Costar #3595, flat bottom 96-well microplates and were moderately swirl shaken on an IKA Schuttler MTS 4 shaker at setting 400 for two hrs at 37° C. in a humidified box. Twenty μl of each these actively growing cultures were transferred to the corresponding well in sets of three microplates, one containing 80 μl of LB medium, another containing 80 μl of LB medium saturated with limonene at room temperature, and the third containing 40 μl of LB medium saturated with limonene and 40 μl of LB medium. An initial (zero time) reading was taken using an MLX microplate luminometer (Dynex) pre-warmed to 37° C. Then the plates were placed at 37° C. without shaking. Additional bioluminescent measurements were taken at 45, 90, and 135 minutes. To limit the number of microplates handled each day, LuxArray 1.04 microplates 1 to 5, microplates 6 to 10, microplates 11 to 15, and microplates […] were used on each of four different days.\nThe data were normalized to correct for growth-inhibition caused by limonene on the basis of each individual day that data was collected. The bioluminescence (RLU) of each individual culture for each day of experimentation under each of the three conditions, were added to determine the daily array total RLU. These were used to find a daily normalization factor (DNF) as follows:\nDNF=Daily total array signal(time zero, LB control)/Daily total array signal(time x, condition y)\nEach measurement from the corresponding day, time point, and condition was multiplied by DNF to yield a normalized signal. The data from wells that were scored to have little or no growth were not used in further analysis. The normalized data were analyzed with GeneSpring (Silicon Genetics) software, which averaged the signal from each of the duplicate cultures for each reporter gene fusion.\nThus, patterns of gene expression from the 80% saturated limonene in LB medium were further examined. […] These lists were examined and gene fusions with very low normalized RLU values (<0.012 RLU) at all conditions were eliminated. […] The designation of “>2X” is given for upregulation while “*” is listed if the expression was less than 2 fold increased. At 45 minutes, the expression of fourteen gene fusions was increased; none of these was increased 3 fold or higher. At 90 minutes, 37 gene fusions were induced; these included all but one of the gene fusions observed at 45 minutes. […] These were fusions of the luxCDABE reporter to the promoter regions of uhpT (3.8×), nirB (3.7×) and narK (3.6×). At 135 minutes, 39 gene fusions were induced, which included 13 fusions not observed at 45 or 90 minutes.",
  "data": [
    {"molecule": "C=C(C)[C@H]1CC=C(C)CC1", "note": "[limonene]", "values": [
      {"measurement": "upregulation of gene expression overall", "setting": "40% saturated limonene in LB medium", "value": "little to no upregulation of gene expression"},
      {"measurement": "number of gene fusions upregulated by 2 fold or more", "setting": "45 minutes", "value": "fourteen"},
      {"measurement": "number of gene fusions upregulated by 2 fold or more", "setting": "90 minutes", "value": 37, "unit": "gene fusions"},
      {"measurement": "number of gene fusions upregulated by 2 fold or more", "setting": "135 minutes", "value": 39, "unit": "gene fusions"},
      {"measurement": "upregulation of gene fusion", "setting": "b0005 fusion, 45 minutes", "value": "* (“*” is listed if the expression was less than 2 fold increased)"},
      {"measurement": "upregulation of gene fusion", "setting": "b0005 fusion, 90 minutes", "value": "* (“*” is listed if the expression was less than 2 fold increased)"},
      {"measurement": "upregulation of gene fusion", "setting": "b0005 fusion, 135 minutes", "value": ">2X (The designation of “>2X” is given for upregulation)"},
      {"measurement": "upregulation of gene fusion", "setting": "b0123 (yacK) fusion, 45 minutes", "value": "* (“*” is listed if the expression was less than 2 fold increased)"},
      {"measurement": "upregulation of gene fusion", "setting": "b0314 (betT) fusion, 45 minutes", "value": "* (“*” is listed if the expression was less than 2 fold increased)"},
      {"measurement": "upregulation of gene fusion", "setting": "b0314 (betT) fusion, 90 minutes", "value": ">2X (The designation of “>2X” is given for upregulation)"},
      {"measurement": "upregulation of gene fusion", "setting": "b0314 (betT) fusion, 135 minutes", "value": ">2X (The designation of “>2X” is given for upregulation)"},
      {"measurement": "upregulation of gene fusion", "setting": "b0417 fusion, 45 minutes", "value": "* (“*” is listed if the expression was less than 2 fold increased)"},
      {"measurement": "upregulation of gene fusion", "setting": "b0417 fusion, 90 minutes", "value": ">2X (The designation of “>2X” is given for upregulation)"},
      {"measurement": "upregulation of gene fusion", "setting": "b0417 fusion, 135 minutes", "value": ">2X (The designation of “>2X” is given for upregulation)"},
      {"measurement": "upregulation of gene fusion", "setting": "b0422 (xseB) fusion, 45 minutes", "value": "* (“*” is listed if the expression was less than 2 fold increased)"},
      {"measurement": "upregulation of gene fusion", "setting": "b0422 (xseB) fusion, 90 minutes", "value": ">2X (The designation of “>2X” is given for upregulation)"},
      {"measurement": "upregulation of gene fusion", "setting": "b0422 (xseB) fusion, 135 minutes", "value": "* (“*” is listed if the expression was less than 2 fold increased)"},
      {"measurement": "upregulation of gene fusion", "setting": "b0572 fusion, 45 minutes", "value": "* (“*” is listed if the expression was less than 2 fold increased)"},
      {"measurement": "upregulation of gene fusion", "setting": "b0572 fusion, 90 minutes", "value": ">2X (The designation of “>2X” is given for upregulation)"},
      {"measurement": "upregulation of gene fusion", "setting": "b0572 fusion, 135 minutes", "value": ">2X (The designation of “>2X” is given for upregulation)"},
      {"measurement": "upregulation of gene fusion", "setting": "b0593 (entC) fusion, 45 minutes", "value": "* (“*” is listed if the expression was less than 2 fold increased)"},
      {"measurement": "upregulation of gene fusion", "setting": "b0593 (entC) fusion, 90 minutes", "value": ">2X (The designation of “>2X” is given for upregulation)"},
      {"measurement": "upregulation of gene fusion", "setting": "b0593 (entC) fusion, 135 minutes", "value": ">2X (The designation of “>2X” is given for upregulation)"},
      {"measurement": "upregulation of gene fusion", "setting": "b0839 (dacC) fusion, 45 minutes", "value": "* (“*” is listed if the expression was less than 2 fold increased)"},
      {"measurement": "upregulation of gene fusion", "setting": "b0839 (dacC) fusion, 90 minutes", "value": ">2X (The designation of “>2X” is given for upregulation)"},
      {"measurement": "upregulation of gene fusion", "setting": "b0839 (dacC) fusion, 135 minutes", "value": ">2X (The designation of “>2X” is given for upregulation)"},
      {"measurement": "upregulation of gene fusion", "setting": "b1188 (ycgB) fusion, 45 minutes", "value": "* (“*” is listed if the expression was less than 2 fold increased)"},
      {"measurement": "upregulation of gene fusion", "setting": "b1188 (ycgB) fusion, 90 minutes", "value": ">2X (The designation of “>2X” is given for upregulation)"},
      {"measurement": "upregulation of gene fusion", "setting": "b1188 (ycgB) fusion, 135 minutes", "value": "* (“*” is listed if the expression was less than 2 fold increased)"},
      {"measurement": "upregulation of gene fusion", "setting": "b1223 (narK) fusion, 45 minutes", "value": "* (“*” is listed if the expression was less than 2 fold increased)"},
      {"measurement": "upregulation of gene fusion", "setting": "b1223 (narK) fusion, 90 minutes", "value": ">2X (The designation of “>2X” is given for upregulation)"},
      {"measurement": "upregulation of gene fusion", "setting": "b1223 (narK) fusion, 135 minutes", "value": ">2X (The designation of “>2X” is given for upregulation)"},
      {"measurement": "upregulation of gene fusion", "setting": "b1676 (pykF) fusion, 45 minutes", "value": ">2X (The designation of “>2X” is given for upregulation)"},
      {"measurement": "upregulation of gene fusion", "setting": "b1676 (pykF) fusion, 90 minutes", "value": ">2X (The designation of “>2X” is given for upregulation)"},
      {"measurement": "upregulation of gene fusion", "setting": "b1676 (pykF) fusion, 135 minutes", "value": ">2X (The designation of “>2X” is given for upregulation)"},
      {"measurement": "upregulation of gene fusion", "setting": "b1872 (bisZ) fusion, 45 minutes", "value": "* (“*” is listed if the expression was less than 2 fold increased)"},
      {"measurement": "upregulation of gene fusion", "setting": "b1872 (bisZ) fusion, 90 minutes", "value": ">2X (The designation of “>2X” is given for upregulation)"},
      {"measurement": "upregulation of gene fusion", "setting": "b1872 (bisZ) fusion, 135 minutes", "value": ">2X (The designation of “>2X” is given for upregulation)"},
      {"measurement": "upregulation of gene fusion", "setting": "b1993 (cobU) fusion, 45 minutes", "value": ">2X (The designation of “>2X” is given for upregulation)"},
      {"measurement": "upregulation of gene fusion", "setting": "b1993 (cobU) fusion, 90 minutes", "value": ">2X (The designation of “>2X” is given for upregulation)"},
      {"measurement": "upregulation of gene fusion", "setting": "b1993 (cobU) fusion, 135 minutes", "value": ">2X (The designation of “>2X” is given for upregulation)"},
      {"measurement": "upregulation of gene fusion", "setting": "b2081 fusion, 45 minutes", "value": ">2X (The designation of “>2X” is given for upregulation)"},
      {"measurement": "upregulation of gene fusion", "setting": "b2081 fusion, 90 minutes", "value": ">2X (The designation of “>2X” is given for upregulation)"},
      {"measurement": "upregulation of gene fusion", "setting": "b2081 fusion, 135 minutes", "value": "* (“*” is listed if the expression was less than 2 fold increased)"},
      {"measurement": "upregulation of gene fusion", "setting": "b2237 (inaA) fusion, 45 minutes", "value": "* (“*” is listed if the expression was less than 2 fold increased)"},
      {"measurement": "upregulation of gene fusion", "setting": "b2237 (inaA) fusion, 90 minutes", "value": ">2X (The designation of “>2X” is given for upregulation)"},
      {"measurement": "upregulation of gene fusion", "setting": "b2237 (inaA) fusion, 135 minutes", "value": ">2X (The designation of “>2X” is given for upregulation)"},
      {"measurement": "upregulation of gene fusion", "setting": "b2322 fusion, 45 minutes", "value": "* (“*” is listed if the expression was less than 2 fold increased)"},
      {"measurement": "upregulation of gene fusion", "setting": "b2322 fusion, 90 minutes", "value": ">2X (The designation of “>2X” is given for upregulation)"},
      {"measurement": "upregulation of gene fusion", "setting": "b2322 fusion, 135 minutes", "value": ">2X (The designation of “>2X” is given for upregulation)"},
      {"measurement": "upregulation of gene fusion", "setting": "b2367 (emrY) fusion, 45 minutes", "value": "* (“*” is listed if the expression was less than 2 fold increased)"},
      {"measurement": "upregulation of gene fusion", "setting": "b2367 (emrY) fusion, 90 minutes", "value": ">2X (The designation of “>2X” is given for upregulation)"},
      {"measurement": "upregulation of gene fusion", "setting": "b2367 (emrY) fusion, 135 minutes", "value": "* (“*” is listed if the expression was less than 2 fold increased)"},
      {"measurement": "upregulation of gene fusion", "setting": "b2451 fusion, 45 minutes", "value": "* (“*” is listed if the expression was less than 2 fold increased)"},
      {"measurement": "upregulation of gene fusion", "setting": "b2451 fusion, 90 minutes", "value": ">2X (The designation of “>2X” is given for upregulation)"}
    ]}
  ]
}
